Data reported in article PMC10290124 (Nature Communications, 2023).

Assays:
human TRPV4 (hTRPV4) [1] = biological target: T1, human TRPV4 (hTRPV4) (Homo sapiens, UniProt Q9HBA0)
human TRPV4 (hTRPV4) [2] = biological target: T1, human TRPV4 (hTRPV4); test: cryo-EM structure ([…] Å, open state); EC50 from Fura-2 calcium imaging in HEK […] cells; assay type: cell-based; parameters: with RhoA
RhoA = biological target: T2, RhoA (Homo sapiens, UniProt P61586); test: cryo-EM structure of the hTRPV4-RhoA complex (ARD-RhoA local refinement, […] Å); assay type: binding
T2 construct: endogenous RhoA from HEK 293S cells, co-purified with hTRPV4; with TRPV4
T2 sequence (P61586 1-190): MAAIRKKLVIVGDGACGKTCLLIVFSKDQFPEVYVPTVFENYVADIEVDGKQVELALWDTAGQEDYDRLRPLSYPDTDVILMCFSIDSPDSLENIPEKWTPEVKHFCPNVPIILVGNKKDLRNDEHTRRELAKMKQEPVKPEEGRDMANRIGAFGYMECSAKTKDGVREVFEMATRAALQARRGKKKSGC
T2 sequence (Q9HBA0 whole entry partner): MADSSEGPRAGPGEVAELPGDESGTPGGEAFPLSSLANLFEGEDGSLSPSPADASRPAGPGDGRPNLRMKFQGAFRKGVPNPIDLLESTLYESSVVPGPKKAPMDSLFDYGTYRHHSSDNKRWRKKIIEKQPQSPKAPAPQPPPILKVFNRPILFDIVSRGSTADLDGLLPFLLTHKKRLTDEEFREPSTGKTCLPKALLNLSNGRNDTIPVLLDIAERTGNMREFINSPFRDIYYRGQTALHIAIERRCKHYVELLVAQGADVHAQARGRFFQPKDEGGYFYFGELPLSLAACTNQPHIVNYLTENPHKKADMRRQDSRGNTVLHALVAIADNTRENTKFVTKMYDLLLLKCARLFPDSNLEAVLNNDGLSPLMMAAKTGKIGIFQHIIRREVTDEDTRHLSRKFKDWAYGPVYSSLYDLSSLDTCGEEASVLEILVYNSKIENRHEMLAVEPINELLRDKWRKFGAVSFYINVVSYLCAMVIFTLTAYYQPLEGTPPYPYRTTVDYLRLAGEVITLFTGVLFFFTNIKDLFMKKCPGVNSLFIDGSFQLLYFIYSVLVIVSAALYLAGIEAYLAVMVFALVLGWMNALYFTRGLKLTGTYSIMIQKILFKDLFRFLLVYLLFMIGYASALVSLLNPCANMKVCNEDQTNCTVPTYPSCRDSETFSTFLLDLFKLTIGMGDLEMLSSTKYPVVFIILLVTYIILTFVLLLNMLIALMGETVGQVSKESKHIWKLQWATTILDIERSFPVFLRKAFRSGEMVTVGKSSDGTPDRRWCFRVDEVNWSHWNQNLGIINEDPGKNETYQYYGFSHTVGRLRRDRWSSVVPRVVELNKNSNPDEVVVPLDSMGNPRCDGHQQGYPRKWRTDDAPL

T1 sequence (Q9HBA0 whole entry): as the sequence (Q9HBA0 whole entry partner) above
T1 sequence (P61586 1-190 partner): as the sequence (P61586 1-190) above

## Cc1c(C(=O)Nc2cccc(C(F)(F)F)c2)cc(-c2ccccc2)n1CCCN1CCOCC1 [HC-067047]
Human TRPV4 (hTRPV4) [1]
  IC50: 25 ± 6.2 nM

## CCCCCCCCCC(=O)O[C@@H]1[C@@H](C)[C@@]2(O)[C@@H](C=C(CO)C[C@@]3(O)C(=O)C(C)=C[C@@H]23)[C@@H]2C(C)(C)[C@]12OC(=O)CCCCCCCCC [4α-PDD, 4α-phorbol 12,13-didecanoate]
Human TRPV4 (hTRPV4) [2]
  EC50: 450 ± 39 nM

## Nc1nc2c(ncn2[C@@H]2O[C@H](CO[P@](=O)(O)OP(=O)(O)O)[C@@H](O)[C@H]2O)c(=O)[nH]1 [GDP, guanosine diphosphate]
RhoA
  cryo-EM structure of the hTRPV4-RhoA complex (ARD-RhoA local refinement, 3.49 Å): unambiguously identify the endogenous molecule of guanosine diphosphate (GDP) bound in the RhoA ligand-binding pocket
